This passage reports DC50 and remaining activity results from US20240374591A1, “CEREBLON BINDING COMPOUNDS, COMPOSITIONS THEREOF, AND METHODS OF TREATMENT THEREWITH” (CELGENE CORPORATION, priority 2021, published 2024).

The test deals with T1, AR in VCaP cells (Homo sapiens, UniProt P10275).
T1 construct: endogenous in cells; host or cells: VCaP cells
T1 sequence (P10275 1-920): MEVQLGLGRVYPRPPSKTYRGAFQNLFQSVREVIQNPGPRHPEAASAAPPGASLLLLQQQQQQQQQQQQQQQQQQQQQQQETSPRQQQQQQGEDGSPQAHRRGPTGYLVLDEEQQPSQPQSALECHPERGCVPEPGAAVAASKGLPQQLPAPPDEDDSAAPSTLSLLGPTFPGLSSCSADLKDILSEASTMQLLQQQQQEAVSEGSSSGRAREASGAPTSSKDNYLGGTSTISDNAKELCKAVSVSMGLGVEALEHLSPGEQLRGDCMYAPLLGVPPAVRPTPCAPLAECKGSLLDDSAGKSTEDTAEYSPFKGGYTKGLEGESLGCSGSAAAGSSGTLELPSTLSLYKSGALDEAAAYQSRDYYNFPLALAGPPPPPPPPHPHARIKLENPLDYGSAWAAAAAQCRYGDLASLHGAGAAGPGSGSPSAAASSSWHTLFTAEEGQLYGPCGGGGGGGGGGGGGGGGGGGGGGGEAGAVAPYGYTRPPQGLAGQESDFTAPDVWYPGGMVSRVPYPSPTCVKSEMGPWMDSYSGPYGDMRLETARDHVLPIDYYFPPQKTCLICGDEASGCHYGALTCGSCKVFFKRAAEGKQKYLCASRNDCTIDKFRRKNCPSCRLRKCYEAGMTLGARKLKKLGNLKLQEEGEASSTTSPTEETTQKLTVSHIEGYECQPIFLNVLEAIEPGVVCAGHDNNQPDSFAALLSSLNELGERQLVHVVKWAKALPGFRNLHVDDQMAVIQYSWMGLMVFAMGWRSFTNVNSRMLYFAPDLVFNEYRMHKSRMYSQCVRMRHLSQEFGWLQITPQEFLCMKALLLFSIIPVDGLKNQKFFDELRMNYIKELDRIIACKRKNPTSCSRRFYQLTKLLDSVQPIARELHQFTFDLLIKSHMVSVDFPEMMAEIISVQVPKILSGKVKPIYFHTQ
Description: VCAP AR Degradation Assay (AR ELISA, 24 h). In kind it is cell-based. As to conditions: for DC50: concentration giving 50% AR degradation vs DMSO control; for remaining activity at up to 5 µM: lowest measured AR level normalized to DMSO control, top concentration 5 μM, read-out: Y. A general note: ELISA stands for enzyme-linked immunosorbent assay.

Molecules are shown by their SMILES.

Take `CC1(C)C(=O)N(c2ccc(C#N)c(C(F)(F)F)c2)C(=S)N1[C@H]1CC[C@H](CCCN2CCN(CC(=O)Nc3ccc(C4CCC(=O)NC4=O)nc3)[C@@H](C(F)(F)F)C2)CC1` (stereo partly drawn) [Cmpd 22, 2-((R)-4-(3-((trans)-4-(3-(4-Cyano-3-(trifluoromethyl)phenyl)-5,5-dimethyl-4-oxo-2-thioxoimidazolidin-1-yl)cyclohexyl)propyl)-2-(trifluoromethyl)piperazin-1-yl)-N-(6-(2,6-dioxopiperidin-3-yl)pyridin-3-yl)acetamide]: the DC50 is 10 to 100 nM and the remaining activity at up to 5 µM lay in the range of 20 to 30%.
The corresponding values for `CC1(C)C(=O)N(c2cnc(C#N)c(C(F)(F)F)c2)C(=S)N1[C@H]1CC[C@H](OCCCN2CCN(CC(=O)Nc3ccc(C4CCC(=O)NC4=O)nc3)[C@@H](C(F)(F)F)C2)CC1` (stereo partly drawn) [Cmpd 23, 2-((R)-4-(3-(((trans)-4-(3-(6-Cyano-5-(trifluoromethyl)pyridin-3-yl)-5,5-dimethyl-4-oxo-2-thioxoimidazolidin-1-yl)cyclohexyl)oxy)propyl)-2-(trifluoromethyl)piperazin-1-yl)-N-(6-(2,6-dioxopiperidin-3-yl)pyridin-3-yl)acetamide] are not above 5 nM and 0 to 20%.
The corresponding values for `CC1(C)C(=O)N(c2cnc(C#N)c(C(F)(F)F)c2)C(=S)N1[C@H]1CC[C@H](OCCC2CCN(CC(=O)Nc3ccc(C4CCC(=O)NC4=O)nc3)CC2(F)F)CC1` (stereo partly drawn) [Cmpd 32, 2-(4-(2-(((trans)-4-(3-(6-Cyano-5-(trifluoromethyl)pyridin-3-yl)-5,5-dimethyl-4-oxo-2-thioxoimidazolidin-1-yl)cyclohexyl)oxy)ethyl)-3,3-difluoropiperidin-1-yl)-N-(6-(2,6-dioxopiperidin-3-yl)pyridin-3-yl)acetamide] are not above 5 nM and 0 to 20%.

In general, DC50 refers to the midpoint of the concentration-degradation curve. Read a low DC50 as degradation at low concentration.
